According to patent US11567011B2, “System and method for drug detection in exhaled breath” (Sensa Bues AB, priority 2009, dated 2023):

Legend:
[1] = Example 2: methadone in exhaled breath collected on Empore C18 disc, UPLC-MS/MS; settings: all 13 studied patients
[2] = Example 1: amphetamine and methamphetamine in expired air collected on SPE cartridge, SRM UPLC-MS/MS; settings: all 12 studied patients

Row | Compound | detection in the sampled exhaled breath [1] | detection in the expired air sample [2]
1 | CCC(=O)C(CC(C)N(C)C)(c1ccccc1)c1ccccc1 (centres unmarked) [methadone] | detected | –
2 | CN[C@@H](C)Cc1ccccc1 [methamphetamine] | – | detected
